Experimental data from patent publication US12318462B2, “Multi-coated nanoparticles comprising multiple coating layers of chitosan and polyglutamic acid, composition for skin care comprising the same and method for manufacturing the same” (BINOTEC co., ltd., priority 2020, dated 2025).

Experiment: DPPH radical scavenging ability of nanoparticles by time
Type: biochemical
Procedure: DPPH radical scavenging ability was measured to confirm the effect of antioxidant physiological activity according to the sustained-release release of nanoparticles according to the coating layer structure and amount of hydrogel.
50 μL of 0.2 mM 1,1-diphenyl-2-picrylhydrazyl (DPPH) was added to 100 ul of each sample solution. Then, it was stirred and reacted at room temperature for 30 minutes, and then the ELISA reader (Powerwave XS2, Biotek, USA) was used to measure the absorbance at […]. The control groups were Butylated Hydroxynisole (BHA) and Catechin.
Next, using Equation 2 below, the DPPH radical scavenging ability of each nanoparticle was calculated. DPPH radical scavenging ability (%)=(1−absorbance of sample added group/absorbance of no added group)×100 [Equation 2]

| Compound | DPPH radical scavenging ability (18 hr) | DPPH radical scavenging ability (24 hr) | DPPH radical scavenging ability (48 hr) |
| --- | --- | --- | --- |
| COc1ccc(O)c(C(C)(C)C)c1 [BHA, Butylated Hydroxynisole] | 93.2084% | 82.3362% | 47.0031% |
| Catechin | 93.4211% | 87.4680% | 70.5607% |
